Consider ten compounds from patent publication US4840947A, “Antiinflammatory and analgesic piperidin-4-yl-tetracyclic benzodiazepines and use thereas” (Hoechst-Roussel Pharmaceuticals, Inc., priority 1986, dated 1989).

Where two headings read alike, the source gives them in different places.

The test system of assay [1] is adjuvant-induced polyarthritis in rats. As to the kind of experiment: Adjuvant-Induced Polyarthritis In Rats. It counts as in vivo, rat (male Charles River-Wistar Lewis). The note with it: rat, p.o.; for ED50: po; for percent inhibition of paw volume, adjuvant-treated paw / percent inhibition of paw volume, non-injected paw: at 50 mg/kg. The method, then: This activity was measured by a procedure similar to that described by C.
Groups of 10 male Charles River-Wistar Lewis rats weighing 150 to 175 g were individually housed and maintained on a regular rat chow diet. Water was given ad libitum. The adjuvant was prepared by suspending 75 mg of Mycobacterium butyricum (Difco Laboratories, Detroit, Mich.) in 10 ml of white paraffin oil with continuous stirring for 2 hours at room temperature prior to administration. Test compounds are prepared by suspending the drug in water, adding one drop of Tween 80 per 10 ml of suspension, and homogenizing. The adjuvant suspension (0.1 ml) was injected into the footpad of the left hind paw of the rat. Test compound suspensions were administered orally (10 ml/kg) the day before adjuvant suspension injection and the administration was continued for 21 days. One group of ten rats was used for the test drug. Standard, adjuvant-injected control and non-injected control groups are run along with the test drug. Control animals received vehicle (10 ml/kg). Three doses of test drug and one dose of standard preparation were used. Injected and non-injected paw volumes were determined on the day the adjuvant suspension was given, and on subsequent days thereafter (usually days 5, 10, 18, and 21) by the method of C. A. Winter, et al., Proc. Soc.
The percent inhibition of paw volume (injected and non-injected hind paw) was calculated by the following formula: [formula]

The test system of assay [2] is carrageenan-induced rat paw edema. As to the kind of experiment: Inhibition of Carrageenan-Induced Rat Paw Edema. To be noted: for ED50: po; for Percent Inhibition of carrageenan-induced rat paw edema: at 100 mg/kg, p.o. It is filed as in vivo. A general note: In the carrageenan paw model, swelling and tenderness develop within hours.
Assay [3] relates to 2-phenyl-1,4-benzoquinone induced writhing in mice. As to the kind of experiment: Phenylquinone Induced Writhing in Mice (2-phenyl-1,4-benzoquinone, analgesia). It is filed as in vivo, mouse. The note with it: for Percent Inhibition of phenylquinone induced writhing: at 20 mg/kg; for ED50: Mus musculus, sc, read-out: ED50, inhibition of phenylquinone induced writhing. (In general: In writhing tests, fewer writhes than in controls are read as antinociception.)

[4] abbreviates: adjuvant-treated (injected) paw, read-out: ED50 (50% inhibition of paw volume), adjuvant-treated paw.
The mark [5] stands for this setting: non-injected paw, read-out: ED50 (50% inhibition of paw volume), non-injected paw.
The mark [6] stands for this setting: adjuvant-treated (injected) paw.

One may read the ED50 as the dose that gives a 50% effect, or the effect in half of the subjects.

In the case of `CCO.CN1CCC(C2Nc3ccccc3N3CCc4cccc2c43)CC1.O=C(O)/C=C/C(=O)O` (stereo not shown) [6-(1-Methylpiperidin-4-yl)-1,2,6,7-tetrahydrobenzo[b]pyrrolo[3,2,1-jk][1,4]benzodiazepine fumarate ethanolate], the ED50 was determined as 73.6 mg/kg in assay [1] (setting [4]), 18.5 mg/kg in assay [1] (setting [5]) and 41.5 mg/kg in assay [2]. In assay [3] (mice, s.c.), the “Percent Inhibition of phenylquinone induced writhing” value was found to be 51%.

`CCCCC1C(=O)N(c2ccccc2)N(c2ccccc2)C1=O` [Phenylbutazone, reference compound]: the values for the ED50 in assay [1] (setting [4]), in assay [1] (setting [5]) and in assay [2] were 14 mg/kg, 9.4 mg/kg and 50 mg/kg, respectively.

Consider `CN1CCC(C2Nc3ccccc3N3CCCc4cccc2c43)CC1` (stereo not shown) [7-(1-Methyl-4-piperidinyl)-2,3,7,8-tetrahydro-1H-quino[1,8-ab][1,5]benzodiazepine hemifumarate hemihydrate], for which, in assay [1] (setting [6]), the “percent inhibition of paw volume, adjuvant-treated paw” value came to 39%. In addition, the “percent inhibition of paw volume, non-injected paw” value in assay [1] (non-injected paw) is on record as 79%. Also, in assay [2], the “Percent Inhibition of carrageenan-induced rat paw edema” value was determined as 21%. Also, in assay [3] (mice, s.c.), the “Percent Inhibition of phenylquinone induced writhing” value came out at 27%.

For the compound `CCC(=O)O[C@](Cc1ccccc1)(c1ccccc1)[C@H](C)CN(C)C` [Propoxyphene, reference compound], in assay [3], the ED50 amounted to 3.9 mg/kg.

Consider `CN1CCC(C2c3cccc4c3N(CC4)c3ccccc3N2C)CC1` (stereo not shown) [7-Methyl-6-(1-methylpiperidin-4-yl)-1,2,6,7-tetrahydrobenzo[b]pyrrolo[3,2,1-jk][1,4]benzodiazepine], for which the ED50 in assay [3] (mice, s.c.) was found to be 2.6 mg/kg.

For the compound `CN1CCC(C2c3cccc4c3N(CC4)c3ccccc3N2C=O)CC1.O=CO` (stereo not shown) [7-Formyl-6-(1-methylpiperidin-4-yl)-1,2,6,7-tetrahydrobenzo[b]pyrrolo[3,2,1-jk][1,4]benzodiazepine formate], in assay [3] (mice, s.c.), the ED50 is 0.9 mg/kg.

On to `CCO.CN1CCC(C2Nc3ccccc3N3CCc4cc(Br)cc2c43)CC1` (stereo not shown) [4-Bromo-6-(1-methylpiperidin-4-yl)-1,2,6,7-tetrahydrobenzo[b]pyrrolo[3,2,1-jk][1,4]benzodiazepine ethanolate], for which the “Percent Inhibition of phenylquinone induced writhing” value in assay [3] (mice, s.c.) is given as 47%.

As for `CN1CCC(C2Nc3cc(Br)ccc3N3CCc4cccc2c43)CC1` (stereo not shown) [9-Bromo-6-(1-methylpiperidin-4-yl)-1,2,6,7-tetrahydrobenzo[b]pyrrolo[3,2,1-jk][1,4]benzodiazepine], the ED50 in assay [1] (setting [4]) was 112 mg/kg; in assay [1] (setting [5]) it was 3.6 mg/kg. The “Percent Inhibition of carrageenan-induced rat paw edema” value in assay [2] turned out to be 40%.

In the case of `CN1CCC(C2c3cccc4c3N(CC4)c3ccccc3N2C(=O)OCC(Cl)(Cl)Cl)CC1` (stereo not shown) [6-(1-Methylpiperidin-4-yl)-1,2,6,7-tetrahydrobenzo[b]pyrrolo[3,2,1-jk][1,4]benzodiazepine-7-carboxylic acid, 2,2,2-trichloroethyl ester], in assay [2], the “Percent Inhibition of carrageenan-induced rat paw edema” value was found to be 44%.

In the case of `CN1CCC(C2Nc3cc(F)ccc3N3CCc4cccc2c43)CC1` (stereo not shown) [9-Fluoro-6-(1-methylpiperidin-4-yl)-1,2,6,7-tetrahydrobenzo[b]pyrrolo[3,2,1-jk][1,4]benzodiazepine], the “percent inhibition of paw volume, adjuvant-treated paw” value in assay [1] (setting [6]) is 48%. Besides, the “percent inhibition of paw volume, non-injected paw” value in assay [1] (non-injected paw) is 116%. Also, in assay [3] (mice, s.c.), the “Percent Inhibition of phenylquinone induced writhing” value is on record as 35%.
